Reference: ChEMBL document CHEMBL1142826, “Structure based approach to the design of bicyclic-1H-isoindole-1,3(2H)-dione based androgen receptor antagonists” (Bioorg Med Chem Lett, 2005)

Legend:
[1] = biological target: T1, Androgen receptor (Homo sapiens, UniProt P10275); assay: Inhibition of androgen dependent human prostate cancer cell […] proliferation; Ag means agonist; type: functional, cell-based; settings: cancer cell lines
T1 sequence (P10275 whole entry): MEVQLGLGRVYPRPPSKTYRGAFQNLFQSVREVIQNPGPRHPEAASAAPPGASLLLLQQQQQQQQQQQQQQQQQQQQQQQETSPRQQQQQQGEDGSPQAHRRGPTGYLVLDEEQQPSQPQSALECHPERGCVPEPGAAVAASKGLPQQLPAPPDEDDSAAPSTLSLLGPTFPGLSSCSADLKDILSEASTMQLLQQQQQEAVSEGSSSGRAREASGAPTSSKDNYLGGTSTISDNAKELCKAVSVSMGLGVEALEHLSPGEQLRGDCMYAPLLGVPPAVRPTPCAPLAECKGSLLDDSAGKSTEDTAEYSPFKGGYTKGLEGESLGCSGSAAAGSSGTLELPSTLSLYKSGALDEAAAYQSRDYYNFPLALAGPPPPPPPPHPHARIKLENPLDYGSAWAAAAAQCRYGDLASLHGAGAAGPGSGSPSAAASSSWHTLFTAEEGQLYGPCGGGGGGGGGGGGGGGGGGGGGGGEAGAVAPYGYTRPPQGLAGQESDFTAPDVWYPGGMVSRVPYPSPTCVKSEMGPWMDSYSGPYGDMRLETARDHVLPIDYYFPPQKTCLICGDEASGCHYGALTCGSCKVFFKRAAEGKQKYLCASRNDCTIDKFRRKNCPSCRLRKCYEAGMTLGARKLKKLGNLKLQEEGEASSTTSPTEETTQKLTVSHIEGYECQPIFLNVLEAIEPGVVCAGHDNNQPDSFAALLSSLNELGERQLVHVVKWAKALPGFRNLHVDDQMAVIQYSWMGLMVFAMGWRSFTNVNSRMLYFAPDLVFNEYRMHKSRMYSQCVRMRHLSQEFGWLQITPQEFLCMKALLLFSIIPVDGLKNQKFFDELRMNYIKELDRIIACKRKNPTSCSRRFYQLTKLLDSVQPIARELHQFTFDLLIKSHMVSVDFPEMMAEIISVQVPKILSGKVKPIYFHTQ

[2] = biological target: T2, Androgen receptor (Homo sapiens, UniProt P10275, T878A); assay: Inhibition of mutant T877A Androgen receptor in human LNCaP cells; Ag means agonist; type: functional, cell-based
[3] = biological target: T1, Androgen receptor
Description: Inhibition of androgen receptor in human MDA-453 cells

[4] = biological target: T2, Androgen receptor; assay: biochemical
[5] = biological target: T2, Androgen receptor; assay: Inhibition of mutant T877A Androgen receptor in human LNCaP cells; type: cell-based
[6] = biological target: T1, Androgen receptor; assay: Binding affinity for androgen receptor in human MDA-453 cells

T2 sequence (P10275 whole entry T878A): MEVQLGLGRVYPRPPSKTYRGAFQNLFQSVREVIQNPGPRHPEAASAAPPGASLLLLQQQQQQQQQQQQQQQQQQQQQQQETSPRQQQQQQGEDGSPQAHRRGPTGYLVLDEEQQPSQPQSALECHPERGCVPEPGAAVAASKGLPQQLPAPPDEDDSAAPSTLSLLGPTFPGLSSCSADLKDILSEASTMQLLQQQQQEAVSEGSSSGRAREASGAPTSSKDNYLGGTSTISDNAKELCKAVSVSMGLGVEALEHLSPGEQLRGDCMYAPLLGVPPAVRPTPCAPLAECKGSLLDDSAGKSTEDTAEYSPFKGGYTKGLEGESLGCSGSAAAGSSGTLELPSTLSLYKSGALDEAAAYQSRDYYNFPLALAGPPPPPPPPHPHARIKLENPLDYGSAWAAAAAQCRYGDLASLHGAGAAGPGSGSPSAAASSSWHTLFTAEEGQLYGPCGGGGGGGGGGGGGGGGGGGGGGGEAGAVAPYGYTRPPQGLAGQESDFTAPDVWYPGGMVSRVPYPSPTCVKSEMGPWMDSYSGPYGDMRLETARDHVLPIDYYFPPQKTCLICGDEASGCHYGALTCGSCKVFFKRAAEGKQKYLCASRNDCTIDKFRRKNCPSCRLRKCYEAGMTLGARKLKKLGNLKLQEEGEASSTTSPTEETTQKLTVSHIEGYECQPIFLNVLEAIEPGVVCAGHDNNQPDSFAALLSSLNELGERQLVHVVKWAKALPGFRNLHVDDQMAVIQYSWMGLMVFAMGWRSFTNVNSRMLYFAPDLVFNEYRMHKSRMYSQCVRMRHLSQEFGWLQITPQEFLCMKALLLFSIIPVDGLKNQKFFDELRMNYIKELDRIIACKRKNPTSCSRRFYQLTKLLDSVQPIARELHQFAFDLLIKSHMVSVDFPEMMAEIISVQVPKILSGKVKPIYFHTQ

**Q.** For `O=C1[C@@H]2C3CCC(C3)[C@@H]2C(=O)N1c1ccc([N+](=O)[O-])c(C(F)(F)F)c1`, which IC50 [1] is on record?
**A.** Agonist

**Q.** What about the IC50 [2] of the same molecule?
**A.** Agonist

**Q.** Which results are given for `Cc1cc(N2C(=O)[C@@H]3C4C=CC(CC4)[C@@H]3C2=O)ccc1Br`?
**A.** IC50 [3]: 68 nM; IC50 [1]: Agonist; IC50 [2]: Agonist; Ki [4]: 0.01 nM

**Q.** Which IC50 [3] does the source give for `O=C1[C@@H]2C3C=CC(CC3)[C@@H]2C(=O)N1c1cccc(C(F)(F)F)c1` here?
**A.** 196 nM

**Q.** And the IC50 [5]?
**A.** 66 nM

**Q.** And the Ki [4]?
**A.** 19 nM

**Q.** `O=C1[C@@H]2C3C=CC(C3)[C@@H]2C(=O)N1c1ccc(Cl)c(Cl)c1` was tested. Which Ki [6] did it give?
**A.** 158 nM

**Q.** What about the IC50 [3] of the same molecule?
**A.** 307 nM

**Q.** What about the IC50 [5] of the same molecule?
**A.** 41 nM

**Q.** What about the Ki [4] of the same molecule?
**A.** 6 nM

**Q.** `O=C1[C@@H]2C3C=CC([C@H]4C[C@@H]34)[C@@H]2C(=O)N1c1cccc(C(F)(F)F)c1` was tested. Which IC50 [3] did it give?
**A.** 1700 nM

**Q.** What about the IC50 [5] of the same molecule?
**A.** 30 nM

**Q.** And the Ki [4]?
**A.** 9 nM

**Q.** Which results are given for `CN1C(=O)C2C=CC1[C@@H]1C(=O)N(c3ccc([N+](=O)[O-])c4ccccc34)C(=O)[C@H]21` (stereo not given in full)?
**A.** Ki [6]: > 5000 nM; IC50 [3]: 4030 nM; IC50 [5]: 631 nM; Ki [4]: 115 nM

**Q.** Which IC50 [3] does the source give for `O=C1[C@@H]2C3CCCC(CC3)[C@@H]2C(=O)N1c1cccc(C(F)(F)F)c1` here?
**A.** 658 nM

**Q.** And the IC50 [5]?
**A.** 23 nM

**Q.** What about the Ki [4] of the same molecule?
**A.** 20 nM

**Q.** Which results are given for `O=C1[C@@H]2C3C=CC(CC3)[C@@H]2C(=O)N1c1ccc(Cl)c(Cl)c1`?
**A.** Ki [6]: 83 nM; IC50 [3]: 150 nM; IC50 [1]: Agonist; IC50 [2]: Agonist; Ki [4]: 28 nM

**Q.** With `O=C1[C@@H]2C3C=CC(CC3)[C@@H]2C(=O)N1c1ccc([N+](=O)[O-])c2ccccc12` as the molecule, how does the IC50 [3] read?
**A.** 224 nM

**Q.** And the IC50 [1]?
**A.** Agonist

**Q.** What about the Ki [4] of the same molecule?
**A.** 0.5 nM

**Q.** Which Ki [6] does the source give for `O=C1[C@@H]2C3C=CC([C@H]4C[C@@H]34)[C@@H]2C(=O)N1c1ccc([N+](=O)[O-])c2ccccc12` here?
**A.** 3 nM

**Q.** And the IC50 [3]?
**A.** 786 nM

**Q.** What about the IC50 [1] of the same molecule?
**A.** Agonist

**Q.** And the IC50 [2]?
**A.** Agonist

**Q.** Which results are given for `O=C1[C@@H]2C3C=CC(CCC3)[C@@H]2C(=O)N1c1ccc([N+](=O)[O-])c2ccccc12`?
**A.** IC50 [3]: 49 nM; IC50 [1]: Agonist; IC50 [2]: Agonist

**Q.** `Cc1cc(N2C(=O)[C@@H]3C4C=CC([C@H](O)[C@@H]4O)[C@@H]3C2=O)ccc1Br` was tested. Which Ki [6] did it give?
**A.** 432 nM

**Q.** And the IC50 [3]?
**A.** 5240 nM

**Q.** And the IC50 [5]?
**A.** 59 nM

**Q.** What about the IC50 [1] of the same molecule?
**A.** Agonist

**Q.** And the Ki [4]?
**A.** 33 nM

**Q.** With `CC(C)(O)C(=O)Nc1ccc([N+](=O)[O-])c(C(F)(F)F)c1` [HYDROXYFLUTAMIDE] as the molecule, how does the IC50 [1] read?
**A.** Agonist

**Q.** And the IC50 [2]?
**A.** Agonist
